≈ marks a conversion by molar mass, not a printed value.
Legend:
Type in all cases: cell-based
Aspergillus fumigatus = assay: Antifungal activity, minimum growth inhibition concentration (MIC), Aspergillus fumigatus; conditions: Sabouraud dextrose agar, 27° C., 2 to 4 days
Procedure: (§1) The minimum growth inhibition concentrations (MIC) of the present substances against eumycetes are as tabulated below.
(§2) Culture medium: Sabouraud dextrose agar
(§3) Culturing conditions: 27° C., 2 to 4 days

Candida albicans = assay: Antifungal activity, minimum growth inhibition concentration (MIC), Candida albicans; conditions: Sabouraud dextrose agar, 27° C., 2 to 4 days
Procedure: as §1, §2, §3

Cryptococcus neoformans = assay: Antifungal activity, minimum growth inhibition concentration (MIC), Cryptococcus neoformans; conditions: Sabouraud dextrose agar, 27° C., 2 to 4 days
Procedure: as §1, §2, §3

Trichophyton rubrum = assay: Antifungal activity, minimum growth inhibition concentration (MIC), Trichophyton rubrum; conditions: Sabouraud dextrose agar, 27° C., 2 to 4 days
Procedure: as §1, §2, §3

[1] = tested on: Trichophyton mentagraphytes; assay: Antifungal activity, minimum growth inhibition concentration (MIC), Trichophyton mentagraphytes
Procedure: as §1, §2, §3

Structure (SMILES) | MIC (Aspergillus fumigatus) [µg/mL] | MIC (Candida albicans) [µg/mL] | MIC (Cryptococcus neoformans) [µg/mL] | MIC (Trichophyton rubrum) [µg/mL] | MIC [1] [µg/mL]
CCCCC=C[N+]([O-])=NC(C)C(C)=O (stereo not shown) [KA-7367A] | 6.25 (≈ 31.5 µM) | 1.6 (≈ 8.07 µM) | 3.2 (≈ 16.1 µM) | 3.2 (≈ 16.1 µM) | 6.25 (≈ 31.5 µM)
CCCCC=C[N+]([O-])=NC(C)C(C)O (stereo not shown) [KA-7367B] | 100 (≈ 499 µM) | 50 (≈ 250 µM) | 100 (≈ 499 µM) | 100 (≈ 499 µM) | 100 (≈ 499 µM)

From patent US4981954A, “Novel azoxy compounds and process for production thereof” (Kowa Company, Ltd., priority 1987, dated 1991)
